Laboratory results taken from PubChem BioAssay AID248 (DTP/NCI, 2004).
Where “and” joins values, the source holds several entries; their conditions need not be identical. Identical values can stand only once. Inconclusive results and toxic doses are left out. No stated cut-off is given here; in the data, active means T/C of 150% or more; inactive means T/C below 125%.

System: L1210 leukemia ip in BDF1 mice, survival T/C
Assay: NCI In Vivo Anticancer Drug Screen. Data for tumor model L1210 Leukemia (intraperitoneal) in B6D2F1 (BDF1) mice
Settings: higher = longer survival
Outline: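 Tumor was transplanted into mice, which were then dosed with test compound or vehicle alone. Survival was recorded for each group, and the treated figure was expressed relative to the control figure.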

Measured: T/C

COc1cc2cc3c4cc(OC)c(OC)cc4cc[n+]3c(C)c2cc1OC (tested in a mixture with another compound)
inactive: endpoint: mean survival time, dose: 5.0 mg/kg/injection, schedule: Q01DX009 (ip), vehicle: saline 105 % of control and 113 % of control | endpoint: mean survival time, dose: 8.0 mg/kg/injection, schedule: Q01DX009 (ip), vehicle: Klucel (hydroxypropylcellulose) (HPC) 114 % of control | endpoint: mean survival time, dose: 10.0 mg/kg/injection, schedule: Q01DX009 (ip), vehicle: saline 105 % of control | endpoint: mean survival time, dose: 16.0 mg/kg/injection, schedule: Q01DX009 (ip), vehicle: clinical formulation 116 % of control | endpoint: mean survival time, dose: 16.0 mg/kg/injection, schedule: Q03HX024 (ip), vehicle: saline 107 % of control | endpoint: mean survival time, dose: 40.0 mg/kg/injection, schedule: Q01DX009 (ip), vehicle: saline 116 % of control | endpoint: mean survival time, dose: 64.0 mg/kg/injection, schedule: Q03HX024 (ip), vehicle: saline 113 % of control | endpoint: mean survival time, dose: 80.0 mg/kg/injection, schedule: Q01DX009 (ip), vehicle: saline 117 % of control | endpoint: mean survival time, dose: 100.0 mg/kg/injection, schedule: Q04DX003 (ip), vehicle: saline with Tween-80 116 % of control | endpoint: mean survival time, dose: 128.0 mg/kg/injection, schedule: Q08DX002 (ip), vehicle: saline 112 % of control | endpoint: mean survival time, dose: 150.0 mg/kg/injection, schedule: Q04DX003 (ip), vehicle: saline with Tween-80 117 % of control | endpoint: mean survival time, dose: 200.0 mg/kg/injection, schedule: Q04DX002 (ip), vehicle: saline 105 % of control | endpoint: mean survival time, dose: 256.0 mg/kg/injection, schedule: Q04DX003 (ip), vehicle: saline 118 % of control | endpoint: median survival time, dose: 8.0 mg/kg/injection, schedule: Q01DX009 (ip), vehicle: Klucel (hydroxypropylcellulose) (HPC) 108 % of control | endpoint: median survival time, dose: 8.0 mg/kg/injection, schedule: Q01DX009 (ip), vehicle: clinical formulation 110 % of control | endpoint: median survival time, dose: 8.0 mg/kg/injection, schedule: Q01DX009 (ip), vehicle: other 117 % of control | endpoint: median survival time, dose: 8.0 mg/kg/injection, schedule: Q01DX009 (ip), vehicle: water 111 % of control | endpoint: median survival time, dose: 8.0 mg/kg/injection, schedule: Q01DX009 (oral), vehicle: other 99 % of control and 113 % of control | endpoint: median survival time, dose: 8.0 mg/kg/injection, schedule: Q01DX009 (sc), vehicle: other 104 % of control | endpoint: median survival time, dose: 16.0 mg/kg/injection, schedule: Q01DX009 (ip), vehicle: Klucel (hydroxypropylcellulose) (HPC) 104 % of control | endpoint: median survival time, dose: 16.0 mg/kg/injection, schedule: Q01DX009 (ip), vehicle: clinical formulation 114 % of control | endpoint: median survival time, dose: 16.0 mg/kg/injection, schedule: Q01DX009 (oral), vehicle: other 98 % of control and 105 % of control | endpoint: median survival time, dose: 16.0 mg/kg/injection, schedule: Q01DX009 (oral), vehicle: saline 100 % of control | endpoint: median survival time, dose: 16.0 mg/kg/injection, schedule: Q01DX009 (sc), vehicle: other 104 % of control | endpoint: median survival time, dose: 25.0 mg/kg/injection, schedule: Q01DX009 (ip), vehicle: Klucel (hydroxypropylcellulose) (HPC) 98 % of control and 99 % of control | endpoint: median survival time, dose: 25.0 mg/kg/injection, schedule: Q01DX009 (ip), vehicle: other 98 % of control and 99 % of control | endpoint: median survival time, dose: 25.0 mg/kg/injection, schedule: Q01DX009 (ip), vehicle: saline 99 % of control and 100 % of control | endpoint: median survival time, dose: 32.0 mg/kg/injection, schedule: Q01DX001 (oral), vehicle: saline 95 % of control and 100 % of control | endpoint: median survival time, dose: 32.0 mg/kg/injection, schedule: Q01DX001 (sc), vehicle: saline 95 % of control | endpoint: median survival time, dose: 32.0 mg/kg/injection, schedule: Q01DX009 (oral), vehicle: other 115 % of control and 116 % of control | endpoint: median survival time, dose: 32.0 mg/kg/injection, schedule: Q01DX009 (oral), vehicle: saline 100 % of control | endpoint: median survival time, dose: 32.0 mg/kg/injection, schedule: Q01DX009 (sc), vehicle: other 100 % of control | endpoint: median survival time, dose: 32.0 mg/kg/injection, schedule: Q01DX009 (sc), vehicle: saline 95 % of control | endpoint: median survival time, dose: 50.0 mg/kg/injection, schedule: Q01DX009 (ip), vehicle: Klucel (hydroxypropylcellulose) (HPC) 100 % of control and 101 % of control | endpoint: median survival time, dose: 50.0 mg/kg/injection, schedule: Q01DX009 (ip), vehicle: other 95 % of control and 96 % of control | endpoint: median survival time, dose: 50.0 mg/kg/injection, schedule: Q01DX009 (ip), vehicle: saline 100 % of control and 101 % of control | endpoint: median survival time, dose: 64.0 mg/kg/injection, schedule: Q01DX001 (ip), vehicle: other 118 % of control | endpoint: median survival time, dose: 64.0 mg/kg/injection, schedule: Q01DX001 (oral), vehicle: other 100 % of control and 101 % of control | endpoint: median survival time, dose: 64.0 mg/kg/injection, schedule: Q01DX001 (oral), vehicle: saline 100 % of control | endpoint: median survival time, dose: 64.0 mg/kg/injection, schedule: Q01DX001 (sc), vehicle: other 114 % of control | endpoint: median survival time, dose: 64.0 mg/kg/injection, schedule: Q01DX009 (oral), vehicle: other 106 % of control and 114 % of control | endpoint: median survival time, dose: 64.0 mg/kg/injection, schedule: Q01DX009 (oral), vehicle: saline 100 % of control | endpoint: median survival time, dose: 64.0 mg/kg/injection, schedule: Q01DX009 (sc), vehicle: other 101 % of control | endpoint: median survival time, dose: 64.0 mg/kg/injection, schedule: Q01DX009 (sc), vehicle: saline 100 % of control | endpoint: median survival time, dose: 64.0 mg/kg/injection, schedule: Q04DX003 (sc), vehicle: saline 100 % of control | endpoint: median survival time, dose: 100.0 mg/kg/injection, schedule: Q01DX009 (ip), vehicle: Klucel (hydroxypropylcellulose) (HPC) 96 % of control and 97 % of control | endpoint: median survival time, dose: 100.0 mg/kg/injection, schedule: Q01DX009 (ip), vehicle: saline 105 % of control and 108 % of control | endpoint: median survival time, dose: 128.0 mg/kg/injection, schedule: Q01DX001 (oral), vehicle: other 100 % of control and 104 % of control | endpoint: median survival time, dose: 128.0 mg/kg/injection, schedule: Q01DX001 (oral), vehicle: saline 100 % of control | endpoint: median survival time, dose: 128.0 mg/kg/injection, schedule: Q01DX001 (sc), vehicle: other 100 % of control | endpoint: median survival time, dose: 128.0 mg/kg/injection, schedule: Q01DX001 (sc), vehicle: saline 100 % of control | endpoint: median survival time, dose: 128.0 mg/kg/injection, schedule: Q01DX009 (ip), vehicle: water 98 % of control | endpoint: median survival time, dose: 128.0 mg/kg/injection, schedule: Q01DX009 (oral), vehicle: other 98 % of control and 110 % of control | endpoint: median survival time, dose: 128.0 mg/kg/injection, schedule: Q01DX009 (oral), vehicle: saline 100 % of control | endpoint: median survival time, dose: 128.0 mg/kg/injection, schedule: Q01DX009 (sc), vehicle: other 100 % of control | endpoint: median survival time, dose: 128.0 mg/kg/injection, schedule: Q01DX009 (sc), vehicle: saline 105 % of control | endpoint: median survival time, dose: 200.0 mg/kg/injection, schedule: Q01DX009 (ip), vehicle: Klucel (hydroxypropylcellulose) (HPC) 95 % of control and 96 % of control | endpoint: median survival time, dose: 200.0 mg/kg/injection, schedule: Q01DX009 (ip), vehicle: other 117 % of control | endpoint: median survival time, dose: 200.0 mg/kg/injection, schedule: Q01DX009 (ip), vehicle: saline 95 % of control and 98 % of control | endpoint: median survival time, dose: 256.0 mg/kg/injection, schedule: Q01DX001 (oral), vehicle: other 99 % of control and 100 % of control | endpoint: median survival time, dose: 256.0 mg/kg/injection, schedule: Q01DX001 (oral), vehicle: saline 100 % of control | endpoint: median survival time, dose: 256.0 mg/kg/injection, schedule: Q01DX001 (sc), vehicle: other 100 % of control | endpoint: median survival time, dose: 256.0 mg/kg/injection, schedule: Q01DX009 (oral), vehicle: other 100 % of control and 110 % of control | endpoint: median survival time, dose: 256.0 mg/kg/injection, schedule: Q01DX009 (oral), vehicle: saline 110 % of control | endpoint: median survival time, dose: 256.0 mg/kg/injection, schedule: Q01DX009 (sc), vehicle: other 99 % of control | endpoint: median survival time, dose: 256.0 mg/kg/injection, schedule: Q01DX009 (sc), vehicle: saline 110 % of control | endpoint: median survival time, dose: 256.0 mg/kg/injection, schedule: Q04DX003 (sc), vehicle: saline 100 % of control | endpoint: median survival time, dose: 400.0 mg/kg/injection, schedule: Q01DX009 (ip), vehicle: Klucel (hydroxypropylcellulose) (HPC) 96 % of control and 97 % of control | endpoint: median survival time, dose: 512.0 mg/kg/injection, schedule: Q01DX001 (oral), vehicle: other 98 % of control and 101 % of control | endpoint: median survival time, dose: 512.0 mg/kg/injection, schedule: Q01DX001 (oral), vehicle: saline 100 % of control | endpoint: median survival time, dose: 512.0 mg/kg/injection, schedule: Q01DX001 (sc), vehicle: other 99 % of control | endpoint: median survival time, dose: 512.0 mg/kg/injection, schedule: Q01DX001 (sc), vehicle: saline 100 % of control | endpoint: median survival time, dose: 512.0 mg/kg/injection, schedule: Q08DX002 (ip), vehicle: other 99 % of control | endpoint: median survival time, dose: 1024.0 mg/kg/injection, schedule: Q01DX001 (oral), vehicle: other 98 % of control and 100 % of control
